Experimental data reported in patent US10941116B2, “Crystalline forms of mesaconine and preparation methods therefor” (Gooddoctor Pharmaceutical Group Co., Ltd., priority 2018, dated 2021).

Experiments:
Type in all cases: physicochemical
[1] = Stability of crystalline form A of mesaconine by XRPD comparison (storage for 4 weeks; heating to 180° C.)
Protocol: After the samples of crystalline form A of mesaconine were placed at 25° C., 60% RH and 40° C., 75% RH for 4 weeks, it was performed XRPD test. The test result was compared with XRPD spectrum of comparative sample of crystalline form A of the mesaconine (XRPD spectrum of crystalline form A of mesaconine before stability test), and the results were shown in FIG. 4. Another sample of crystalline form A of mesaconine was heated to 180° C., and then was performed XRPD test. The test result was compared with XRPD spectrum of comparative sample of crystalline form A of the mesaconine (XRPD spectrum of crystalline form A of mesaconine before stability test), and the results were shown in FIG. 5.

[2] = Influencing factors test (high temperature, high humidity, hard light irradiation), Chinese pharmacopoeia general rule 9001, analyzed by XRPD; conditions: open flat weighing bottle, 10 days
Protocol: In addition, the crystalline form A of mesaconine was sampled and tested for influencing factors according to the Guiding principle for stability test of raw materials of drugs and preparations (general rule 9001, the Chinese pharmacopoeia, 2015 edition).
High temperature test: the sample was placed in an open flat weighing bottle at 60° C. for 10 days. Then the sample was tested according to the key inspection items of stability test, and analyzed by X-ray powder diffraction.
High humidity test: the sample was placed in an open flat weighing bottle at 25° C. and 90% relative humidity for 10 days. Then the sample was tested according to the key inspection items of stability test, and analyzed by X-ray powder diffraction.
Hard light irradiation test: the sample was placed in an open flat weighing bottle for 10 days under the illuminance of 4500 lx. Then the sample was tested according to the key inspection items of stability test, and analyzed by X-ray powder diffraction.

[3] = Solubility test, Chinese pharmacopoeia 2015 edition, general notice; conditions: solvent: water
Text: The crystalline form A of mesaconine was sampled and tested according to the method of solubility test in the Chinese pharmacopoeia (2015 edition, general notice).

[4] = Drug hygroscopicity test, Chinese Pharmacopoeia general rule 9103; conditions: for Percentage of weight increment(%): single batch
Protocol: The test was performed according to guiding principles for drug hygroscopicity test in Chinese Pharmacopoeia (general rule 9103, volume 4, 2015 edition).
According to the definition of hygroscopicity in Chinese Pharmacopoeia (general rule 9103, volume 4, 2015 edition): when the weight increment by hygroscopicity is less than 2% but not less than 0.2%, it has slight hygroscopicity. The weight increment of crystalline form A of mesaconine was 0.85% under the test conditions, which has slight hygroscopicity and good deliquescence resistance.

[5] = Stability of crystalline form B of mesaconine by XRPD comparison after heating to 115° C.; conditions: heated to 115° C.
Protocol: Appropriate amount of crystalline form B of mesaconine was sampled and heated to 115° C., and then was performed XRPD test. The test result was compared with XRPD spectrum of comparative sample of crystalline form B of mesaconine (XRPD spectrum of crystalline form B of mesaconine before stability test), and the results were shown in FIG. 9.

Compound	Crystalline form stability (XRPD main diffraction peaks) ([1]; 25° C., 60% RH for 4 weeks)	Crystalline form stability (XRPD main diffraction peaks) ([1]; 40° C., 75% RH for 4 weeks)	Crystalline form stability (XRPD main diffraction peaks) ([1]; heated to 180° C.)	Position and relative intensity of main XRPD diffraction peaks after high humidity test ([2]; 25° C., 90% relative humidity)	Position and relative intensity of main XRPD diffraction peaks after high temperature test ([2]; 60° C.)	Position and relative intensity of main XRPD diffraction peaks after hard light irradiation test ([2]; illuminance 4500 lx)	Solubility [3]	Hygroscopicity class ([4]; Chinese Pharmacopoeia definition)	Percentage of average weight increment(%) ([4]; hygroscopicity test, average of two batches)	Percentage of weight increment(%) ([4]; hygroscopicity test, listed as Sample 1)	Percentage of weight increment(%) ([4]; hygroscopicity test, listed as Sample 2)	Crystalline form stability (XRPD main diffraction peaks) [5]
COC[C@]12CN(C)[C@@H]3[C@@H]4[C@H](OC)[C@H]1[C@@]3([C@@H](OC)C[C@H]2O)[C@@H]1C[C@@]2(O)[C@H](O)[C@@H]1[C@]4(O)[C@@H](O)[C@@H]2OC [crystalline form A of mesaconine, N-methyl-1α,6α,16β,18-tetramethoxyl-4-methyl-aconite-3α,8β,13β,14α,15α-pentol]	crystalline form did not change	crystalline form did not change	crystalline form did not change	had not changed significantly	had not changed significantly	had not changed significantly	easily soluble (1 g of solute can be dissolved in 1~10 ml of solvent)	slight hygroscopicity (when the weight increment by hygroscopicity is less than 2% but not less than 0.2%, it has slight hygroscopicity)	0.85	0.85	0.84	
N-methyl-1α,6α,16β,18-tetramethoxyl-4-methyl-aconite-3α,8β,13β,14α,15α-pentol [crystalline form B of mesaconine]												crystalline form did not change
